Source: ChEMBL document CHEMBL5046246, “Dimeric Tetracenomycin Derivatives from a Taklamakan Desert-Derived Streptomyces sp. HDN154193” (2022)
Values after ≈ are worked out from the molar mass of the structure shown.

Tests used:
Format in all cases: functional
Proteus sp. = assay: Antibacterial activity against Proteus species assessed as reduction in bacterial growth by double dilution method; conditions: Proteus sp. (in: enterobacteria)
Staphylococcus = assay: Antibacterial activity against methicillin-resistant coagulase-negative Staphylococcus assessed as reduction in bacterial growth by double dilution method
Staphylococcus aureus = assay: Antibacterial activity against methicillin-resistant Staphylococcus aureus assessed as reduction in bacterial growth by double dilution method
Mycolicibacterium phlei = assay: Antibacterial activity against Mycobacterium phlei assessed as reduction in bacterial growth by double dilution method
Bacillus subtilis = assay: Antibacterial activity against Bacillus subtilis assessed as reduction in bacterial growth by double dilution method

SMILES	MIC (Proteus sp.) [µg/mL]	MIC (Staphylococcus) [µg/mL]	MIC (Staphylococcus aureus) [µg/mL]	MIC (Mycolicibacterium phlei) [µg/mL]	MIC (Bacillus subtilis) [µg/mL]
Cc1cc(O)cc2cc3c(c(O)c12)C(=O)c1c(O)cc(O)cc1[C@H]3[C@H]1c2cc(O)cc(O)c2C(=O)c2c1cc1cc(O)cc(C)c1c2O	3.9 (≈ 6.07 µM)	1.9 (≈ 2.96 µM)	1.9 (≈ 2.96 µM)	1.9 (≈ 2.96 µM)	3.9 (≈ 6.07 µM)
Cc1cc(O)cc2cc3c(c(O)c12)C(=O)c1c(O)cc(O)cc1[C@@H]3[C@H]1c2cc(O)cc(O)c2C(=O)c2c1cc1cc(O)cc(C)c1c2O	3.9 (≈ 6.07 µM)	1.9 (≈ 2.96 µM)	1.9 (≈ 2.96 µM)	1.9 (≈ 2.96 µM)	3.9 (≈ 6.07 µM)
Cc1cc(O)cc2cc3c(c(O)c12)C(=O)c1c(O)cc(O)cc1[C@H]3[C@@H]1c2cc(O)cc(O)c2C(=O)c2c1cc1cc(O)cc(C)c1c2O	1.9 (≈ 2.96 µM)	1.9 (≈ 2.96 µM)	1.9 (≈ 2.96 µM)	1.9 (≈ 2.96 µM)	1.9 (≈ 2.96 µM)
Cc1cc(O)cc2cc3c(c(O)c12)C(=O)c1c(O)cc(O)cc1C3C1c2cc(O)cc(O)c2C(=O)c2c1cc1cc(O)cc(C)c1c2O (racemic)	1.9 (≈ 2.96 µM)	1.9 (≈ 2.96 µM)	1 (≈ 1.56 µM)	1 (≈ 1.56 µM)	3.9 (≈ 6.07 µM)
O=C(O)c1cn(C2CC2)c2cc(N3CCNCC3)c(F)cc2c1=O [CIPROFLOXACIN]	< 0.1	32.1 (≈ 96.9 µM)	128 (≈ 388 µM)	0.1 (≈ 0.302 µM)	< 0.1
Cc1cc(O)cc2cc3c(c(O)c12)C(=O)c1c(O)cc(O)cc1C3=O [TETRACENOMYCIN D]	16 (≈ 47.6 µM)	7.7 (≈ 22.9 µM)	16 (≈ 47.6 µM)	7.7 (≈ 22.9 µM)	16 (≈ 47.6 µM)
